{"source": "patent US12551474B2", "about": "“Use of pridopidine for the treatment of fragile X syndrome” (PRILENIA NEUROTHERAPEUTICS LTD., priority 2017, dated 2026)", "key": {"[1]": {"tested_on": "FXS neurons", "assay": "neurite outgrowth in FXS neurons with genetic or pharmacological inactivation of S1R", "assay_type": "cell-based, human", "source_text": "To investigate whether the rescue of neurite outgrowth deficits in FXS neurons following pridopidine treatment is mediated via sigma-1 receptor (S1R), virally-delivered Cas9 was used to target and inactivate S1R in FXS NPC prior to neuronal differentiation. Effective inactivation of S1R gene and loss of its protein product was confirmed by western blot (FIG. 6A).\nThe effect of a pharmacological inhibitor of S1R on pridopidine-mediated neurite outgrowth improvements in FXS neurons was further tested."}, "[2]": {"tested_on": "human patients afflicted with FXS", "settings": "periodic (daily or twice daily) oral administration, pediatric or adult patients"}, "[3]": {"tested_on": "rat striatum", "settings": "transcriptomic analysis; cited from earlier work"}, "[4]": {"tested_on": "Q175 knock-in (Q175 KI) HD mouse model", "settings": "cited from earlier work"}, "[5]": {"tested_on": "neuroblastoma cell line", "settings": "S1R-dependent; cited from earlier work"}, "[6]": {"tested_on": "human FXS neurons", "settings": "8-day period, vs DMSO", "excerpt": "Control cells used were a human Embryonic Stem (ES) cell line.\nFIG. 2A upper panels show MAP2/Tuj-1/DNA immunostaining; lower panels show GABA/NeuN/DNA immunostaining.\nNeurite growth is a surrogate of neuronal development and maturation.\nOpen squares show data from DMSO treated FXS neurons."}, "[7]": {"tested_on": "human patients afflicted with a FXS related disorder", "settings": "periodic (daily or twice daily) oral administration, pediatric or adult patients", "protocol": "The human patients are pediatric patients or adult patients.\nA pridopidine composition as described herein is administered orally to a subject suffering from a FXS related disorder."}}, "note": "Where two headings read alike, the source gives them in different places."}
{"molecule": "CCCN(CCC)CCc1ccc(OC)c(OCCc2ccccc2)c1", "note": "[NE-100, reference compound]", "values": [{"measurement": "effect on pridopidine-mediated neurite outgrowth improvement in FXS neurons", "setting": "[1]; co-administration of NE-100 (1 μM) with pridopidine", "result": "blocked the effect of pridopidine"}]}
{"molecule": "CCCN1CCC(c2cccc(S(C)(=O)=O)c2)CC1", "note": "[pridopidine, 4-[3-(methylsulfonyl)phenyl]-1-propyl-piperidine]", "values": [{"measurement": "neurite outgrowth in FXS neurons", "setting": "[1]; 100 nM pridopidine for 24 hrs", "result": "improvement in neurite outgrowth"}, {"measurement": "improvement in neurite outgrowth in FXS neurons in which S1R was inactivated (S1RKO)", "setting": "[1]; 100 nM pridopidine for 24 hrs, S1RKO (Cas9)", "result": "abolished"}, {"measurement": "treatment of FXS", "setting": "[2]", "result": "effective"}, {"measurement": "expression of BDNF, D1R, GR and Akt/PI3K pathways", "setting": "[3]", "result": "activates expression"}, {"measurement": "gene expression profile versus HD disease gene expression profile", "setting": "[4]", "result": "reversed pattern"}, {"measurement": "secretion of BDNF", "setting": "[5]", "result": "enhances secretion"}, {"measurement": "neurite growth in FXS neurons", "setting": "[6]; 1 uM pridopidine", "result": "significant improvement in neurite growth"}, {"measurement": "neurite growth in FXS neurons", "setting": "[6]; 5 uM pridopidine", "result": "significant improvement in neurite growth"}, {"measurement": "treatment of a FXS related disorder", "setting": "[7]", "result": "effective"}]}
